Laboratory results as given in patent US8080529B2, “Macrolides with anti-inflammatory activity” (Glaxo Group Limited, priority 2005, dated 2011).
Like-named read-outs stand apart in the source and are kept apart here.

Assays:
TNF-α [1] = assay: Inhibition of TNF-α production by stimulated human peripheral blood leukocytes in vitro; type: cell-based; conditions: for inhibition at 10 µM / inhibition at 50 µM: Homo sapiens, Leukocyte, read-out: Percentage of inhibition of TNF-α production
Method in brief: (§1)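 Cytokines in supernatants measured by sandwich ELISA after overnight stimulation (2 μg/mL LPS, 1 μg/mL PMA or 120 μg/mL zymosan) of healthy-donor leukocytes pretreated 2 h with 10 or 50 μM compound. Percent inhibition calculated relative to stimulated cells lacking compound.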

IL-1α = assay: Inhibition of IL-1 production by stimulated human peripheral blood leukocytes in vitro; type: cell-based; conditions: for inhibition at 10 µM / inhibition at 50 µM: Homo sapiens, Leukocyte, read-out: Percentage of inhibition of IL-1α production
IL-6 = assay: Inhibition of IL-6 production by stimulated human peripheral blood leukocytes in vitro; type: cell-based; conditions: for inhibition at 10 µM / inhibition at 50 µM: Homo sapiens, Leukocyte, read-out: Percentage of inhibition of IL-6 production
Method in brief: as §1

IL-8 = assay: Inhibition of IL-8 production by stimulated human peripheral blood leukocytes in vitro; type: cell-based; conditions: for inhibition at 10 µM / inhibition at 50 µM: Homo sapiens, Leukocyte, read-out: Percentage of inhibition of IL-8 production
Method in brief: as §1

[2] = system: human peripheral blood mononuclear cells (PBMC); assay: Effects on human T-cell proliferation in vitro (3H-thymidine incorporation); type: cell-based
Method in brief: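 Proliferation of human peripheral blood mononuclear cells (PBMC) was assessed in the presence of test compounds. During the final 18 h of culture each well received 1 μCi of ^3H-thymidine. Cells were then collected onto a 96-well filter with a multiple cell harvester, and ^3H-thymidine incorporation was counted on a TopCount NXT to give percentage inhibition of proliferation.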

TNF-α [3] = assay: Lipopolysaccharide induced TNF-α production in Balb/cJ mice; type: in vivo; conditions: 10 mg/kg intraperitoneally, 30 min before LPS, 90 min after LPS
Procedure: Male Balb/cJ mice (Iffa Credo, France) weighing 25-33 g were randomly grouped (n=7 in test group, 7 in positive control group, 4 in negative control group). Test compounds, as well as vehicle [0.125% carboxymethyl-cellulose (Sigma, USA)], were administered to the mice intraperitoneally. Test compounds were administered at a dose of 10 mg/kg of body weight, in a volume of 10 mL/kg of body weight. Thirty minutes later, a sterile solution of lipopolysaccharide (LPS) (Sigma, USA) in saline was intraperitoneally administered at a concentration and volume of 25 μg/0.2 mL/mouse to each animal, except those in negative control. Ninety minutes following administration, all animals were sacrificed by puncturing a. carotis communis. The plasma concentration of TNF-α was determined by sandwich ELISA, using capture and detection antibodies (R&D, USA) according to manufacturer's recommendations. Results are presented in the following table as percent of inhibition of TNF-α production in comparison to the positive control (stimulated, but untreated animals).

Hep G2 = assay: Cytotoxicity assay (MTT), Hep G2 cell line; type: cell-based; conditions: 24 h
Method in brief: (§2)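 Hep G2 and A549 cells were cultured 24 h at 37° C in RPM medium with test compounds at 50 μM and 12.5 μM. MTT was added for 0.5-2 h and formazan read at 490 nm. Growth value calculated as OD490 treated/OD490 nontreated ×100.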

A549 = assay: Cytotoxicity assay (MTT), A549 cell line; type: cell-based; conditions: 24 h
Method in brief: as §2

**Q.** What does the source list for `CCC1OC(=O)C(C)C(OC2CC(C)(OC)C(OC(=O)CCN(CC)CC)C(C)O2)C(C)C(OC2OC(C)CC(N(C)C)C2O)C(C)(OC)CC(C)C(=O)NC(C)C(O)C1(C)O` (stereo not shown) [Example 8, 4″-O-(3-Diethylamino-propionyl)-6-O-methyl-9a-aza-9a-homoerythromycin A]?
**A.** Percentage of inhibition of TNF-α production (TNF-α [1]; 10 μM, LPS-stimulated PBL): 51%; Percentage of inhibition of TNF-α production (TNF-α [1]; 10 μM, PMA-stimulated PBL): 46%; Percentage of inhibition of TNF-α production (TNF-α [1]; 10 μM, zymosan-stimulated PBL): 87%; Percentage of inhibition of TNF-α production (TNF-α [1]; 50 μM, LPS-stimulated PBL): 85%; Percentage of inhibition of TNF-α production (TNF-α [1]; 50 μM, PMA-stimulated PBL): 87%; Percentage of inhibition of TNF-α production (TNF-α [1]; 50 μM, zymosan-stimulated PBL): 92%; Percentage of inhibition of IL-1α production (IL-1α; 10 μM, LPS-stimulated PBL): 66%; Percentage of inhibition of IL-1α production (IL-1α; 10 μM, PMA-stimulated PBL): 71%; Percentage of inhibition of IL-1α production (IL-1α; 10 μM, zymosan-stimulated PBL): 86%; Percentage of inhibition of IL-1α production (IL-1α; 50 μM, LPS-stimulated PBL): 83%; Percentage of inhibition of IL-1α production (IL-1α; 50 μM, PMA-stimulated PBL): 86%; Percentage of inhibition of IL-1α production (IL-1α; 50 μM, zymosan-stimulated PBL): 94%; Percentage of inhibition of IL-6 production (IL-6; 10 μM, LPS-stimulated PBL): 16%; Percentage of inhibition of IL-6 production (IL-6; 10 μM, PMA-stimulated PBL): 24%; Percentage of inhibition of IL-6 production (IL-6; 10 μM, zymosan-stimulated PBL): 57%; Percentage of inhibition of IL-6 production (IL-6; 50 μM, LPS-stimulated PBL): 63%; Percentage of inhibition of IL-6 production (IL-6; 50 μM, PMA-stimulated PBL): 100%; Percentage of inhibition of IL-6 production (IL-6; 50 μM, zymosan-stimulated PBL): 80%; Percentage of inhibition of IL-8 production (IL-8; 10 μM, LPS-stimulated PBL): 38%; Percentage of inhibition of IL-8 production (IL-8; 10 μM, PMA-stimulated PBL): 40%; Percentage of inhibition of IL-8 production (IL-8; 10 μM, zymosan-stimulated PBL): 31%; Percentage of inhibition of IL-8 production (IL-8; 50 μM, LPS-stimulated PBL): 79%; Percentage of inhibition of IL-8 production (IL-8; 50 μM, PMA-stimulated PBL): 89%; Percentage of inhibition of IL-8 production (IL-8; 50 μM, zymosan-stimulated PBL): 88%; Percentage of inhibition of proliferation of stimulated PBMC ([2]; PHA, 10 μM): 96%; Percentage of inhibition of proliferation of stimulated PBMC ([2]; PHA, 50 μM): 100%; Percentage of inhibition of proliferation of stimulated PBMC ([2]; PMA + iono., 10 μM): 37%; Percentage of inhibition of proliferation of stimulated PBMC ([2]; PMA + iono., 50 μM): 99%; % inhibition of TNF-α production (plasma) (TNF-α [3]): 93%

**Q.** `CC[C@H]1OC(=O)[C@H](C)[C@@H](O[C@H]2C[C@@](C)(OC)[C@@H](OC(=O)CCN(CC)CC)[C@H](C)O2)[C@H](C)[C@@H](O[C@@H]2O[C@H](C)C[C@H](NC)[C@H]2O)[C@](C)(OC)C[C@@H](C)C(=O)N[C@H](C)[C@@H](O)[C@]1(C)O` [Example 54, 3′-N-Demethyl-4″-O-(3-diethylaminopropionyl)-6-O-methyl-9a-aza-9a-homoerythromycin A] was tested. Which inhibition at 10 µM (TNF-α [1]; 10 μM, LPS-stimulated PBL) did it give?
**A.** The inhibition at 10 µM was 3%.

**Q.** And the inhibition at 10 µM (TNF-α [1]; 10 μM, PMA-stimulated PBL)?
**A.** The inhibition at 10 µM was 25%.

**Q.** What about the inhibition at 10 µM (TNF-α [1]; 10 μM, zymosan-stimulated PBL) of the same compound?
**A.** Its inhibition at 10 µM is 11%.

**Q.** And the inhibition at 50 µM (TNF-α [1]; 50 μM, LPS-stimulated PBL)?
**A.** The inhibition at 50 µM was 55%.

**Q.** What about the inhibition at 50 µM (TNF-α [1]; 50 μM, PMA-stimulated PBL) of the same compound?
**A.** The inhibition at 50 µM was 96%.

**Q.** And the inhibition at 50 µM (TNF-α [1]; 50 μM, zymosan-stimulated PBL)?
**A.** Its inhibition at 50 µM is 92%.

**Q.** What about the inhibition at 10 µM (IL-1α; 10 μM, LPS-stimulated PBL) of the same compound?
**A.** The inhibition at 10 µM was 60%.

**Q.** What about the inhibition at 10 µM (IL-1α; 10 μM, PMA-stimulated PBL) of the same compound?
**A.** The inhibition at 10 µM was 62%.

**Q.** What about the inhibition at 10 µM (IL-1α; 10 μM, zymosan-stimulated PBL) of the same compound?
**A.** Its inhibition at 10 µM is 56%.

**Q.** And the inhibition at 50 µM (IL-1α; 50 μM, LPS-stimulated PBL)?
**A.** Its inhibition at 50 µM is 69%.

**Q.** What about the inhibition at 50 µM (IL-1α; 50 μM, PMA-stimulated PBL) of the same compound?
**A.** Its inhibition at 50 µM is 97%.

**Q.** And the inhibition at 50 µM (IL-1α; 50 μM, zymosan-stimulated PBL)?
**A.** The inhibition at 50 µM was 98%.

**Q.** And the inhibition at 10 µM (IL-6; 10 μM, LPS-stimulated PBL)?
**A.** Its inhibition at 10 µM is 0%.

**Q.** What about the inhibition at 10 µM (IL-6; 10 μM, PMA-stimulated PBL) of the same compound?
**A.** The inhibition at 10 µM was 0%.

**Q.** And the inhibition at 10 µM (IL-6; 10 μM, zymosan-stimulated PBL)?
**A.** The inhibition at 10 µM was 9%.

**Q.** And the inhibition at 50 µM (IL-6; 50 μM, LPS-stimulated PBL)?
**A.** The inhibition at 50 µM was 58%.

**Q.** What about the inhibition at 50 µM (IL-6; 50 μM, PMA-stimulated PBL) of the same compound?
**A.** Its inhibition at 50 µM is 71%.

**Q.** And the inhibition at 50 µM (IL-6; 50 μM, zymosan-stimulated PBL)?
**A.** Its inhibition at 50 µM is 87%.

**Q.** What about the inhibition at 10 µM (IL-8; 10 μM, LPS-stimulated PBL) of the same compound?
**A.** Its inhibition at 10 µM is 0%.

**Q.** What about the inhibition at 10 µM (IL-8; 10 μM, PMA-stimulated PBL) of the same compound?
**A.** The inhibition at 10 µM was 0%.

**Q.** What about the inhibition at 10 µM (IL-8; 10 μM, zymosan-stimulated PBL) of the same compound?
**A.** Its inhibition at 10 µM is 0%.

**Q.** What about the inhibition at 50 µM (IL-8; 50 μM, LPS-stimulated PBL) of the same compound?
**A.** Its inhibition at 50 µM is 82%.

**Q.** And the inhibition at 50 µM (IL-8; 50 μM, PMA-stimulated PBL)?
**A.** Its inhibition at 50 µM is 40%.

**Q.** What about the inhibition at 50 µM (IL-8; 50 μM, zymosan-stimulated PBL) of the same compound?
**A.** Its inhibition at 50 µM is 53%.

**Q.** And the “Percentage of inhibition of cell growth” value (Hep G2; 12.5 μM)?
**A.** Its value is 1%.

**Q.** And the “Percentage of inhibition of cell growth” value (Hep G2; 50 μM)?
**A.** Its value is 2%.

**Q.** What about the “Percentage of inhibition of cell growth” value (A549; 12.5 μM) of the same compound?
**A.** The value was 0%.

**Q.** What about the “Percentage of inhibition of cell growth” value (A549; 50 μM) of the same compound?
**A.** The value was 0%.

**Q.** And the inhibition in vivo at 10 mg/kg (TNF-α [3]; Mus musculus, ip, 1.5 h, read-out: % inhibition of TNF-α production (plasma))?
**A.** The inhibition in vivo at 10 mg/kg was 58%.
